Several values for one entry are separate records, joined by “and”; a condition that tells them apart may be missing. Identical values can stand only once. Toxic doses and inconclusive results are not listed. How the source made its calls: active means survival T/C of 150% or more; inactive means T/C below 125% in these data.
System: CD2F1 mice, L1210 leukemia ip, survival T/C
Assay: NCI In Vivo Anticancer Drug Screen. Data for tumor model L1210 Leukemia (intraperitoneal) in CD2F1 (CDF1) mice
Details: endpoint: mean survival time, higher = longer survival
Method in brief: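 Transplantable tumor in mice; compound-treated vs vehicle-treated groups. Read-out = treated/control ratio of the measured endpoint.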

[1] = dose: 100.0 mg/kg/injection, schedule: Q04DX003 (ip), vehicle: saline with Tween-80
[2] = dose: 200.0 mg/kg/injection, schedule: Q04DX003 (ip), vehicle: saline with Tween-80
[3] = dose: 400.0 mg/kg/injection, schedule: Q04DX003 (ip), vehicle: saline with Tween-80
[4] = dose: 100.0 mg/kg/injection, schedule: Q04DX002 (ip), vehicle: saline with Tween-80

Measured: T/C

CC(C(=O)c1ccc(-c2ccccc2)cc1)C(Cl)c1ccccc1 (stereo not drawn)
inactive: [1] 95 % of control | [2] 95 % of control | [3] 100 % of control

CC(=O)C1C(c2ccccc2)=C(c2ccccc2)c2ccccc21 (stereo not drawn)
inactive: dose: 100.0 mg/kg/injection, schedule: Q01DX001 (ip), vehicle: saline with Tween-80 88 % of control | dose: 200.0 mg/kg/injection, schedule: Q01DX001 (ip), vehicle: saline with Tween-80 92 % of control | dose: 400.0 mg/kg/injection, schedule: Q01DX001 (ip), vehicle: saline with Tween-80 92 % of control

O=C(/C=C\c1ccc(O)c(O)c1)OC1C(O)CC(OC(=O)/C=C/c2ccc(O)c(O)c2)(C(=O)O)CC1O (stereo not drawn)
inactive: dose: 100.0 mg/kg/injection, schedule: Q04DX003 (ip), vehicle: saline 98 % of control | dose: 200.0 mg/kg/injection, schedule: Q04DX003 (ip), vehicle: saline 96 % of control | dose: 400.0 mg/kg/injection, schedule: Q04DX003 (ip), vehicle: saline 95 % of control

O=S(=O)(O)C1CCC[N-]C1.O=S(=O)(O)C1CCC[N-]C1.[Cl][Pt+2]([Cl])([Cl])[Cl] (stereo not drawn)
inactive: dose: 12.5 mg/kg/injection, schedule: Q01DX009 (ip), vehicle: water 102 % of control | dose: 25.0 mg/kg/injection, schedule: Q01DX009 (ip), vehicle: water 102 % of control | dose: 50.0 mg/kg/injection, schedule: Q01DX009 (ip), vehicle: water 105 % of control | dose: 100.0 mg/kg/injection, schedule: Q01DX009 (ip), vehicle: water 110 % of control

CCOC(=O)c1ccc(NCC2=Nc3c(N)nc(N)nc3NC2)cc1
inactive: dose: 12.5 mg/kg/injection, schedule: Q01DX001 (ip), vehicle: carboxymethylcellulose (CMC) 95 % of control | dose: 25.0 mg/kg/injection, schedule: Q01DX001 (ip), vehicle: carboxymethylcellulose (CMC) 108 % of control | dose: 50.0 mg/kg/injection, schedule: Q01DX001 (ip), vehicle: carboxymethylcellulose (CMC) 96 % of control

CCOC(=O)C1(C(=O)OCC)C2CC=CCC21 (stereo not drawn)
inactive: dose: 50.0 mg/kg/injection, schedule: Q01DX009 (ip), vehicle: acetone 100 % of control | dose: 100.0 mg/kg/injection, schedule: Q01DX009 (ip), vehicle: acetone 92 % of control | dose: 200.0 mg/kg/injection, schedule: Q01DX009 (ip), vehicle: acetone 97 % of control

FC(F)(F)C1(C(F)(F)F)C/C(=N/Nc2ccccc2)CO1
inactive: dose: 100.0 mg/kg/injection, schedule: Q04DX003 (ip), vehicle: other 101 % of control | dose: 200.0 mg/kg/injection, schedule: Q04DX003 (ip), vehicle: other 101 % of control | dose: 400.0 mg/kg/injection, schedule: Q04DX003 (ip), vehicle: other 101 % of control

CC(Br)C(=O)c1ccc(OC(=O)c2ccccc2)cc1 (stereo not drawn)
inactive: dose: 100.0 mg/kg/injection, schedule: Q01DX001 (ip), vehicle: saline 100 % of control | dose: 200.0 mg/kg/injection, schedule: Q01DX001 (ip), vehicle: saline 100 % of control | dose: 400.0 mg/kg/injection, schedule: Q01DX001 (ip), vehicle: saline 100 % of control

CC(=O)OCC1OC(N2C(=O)C=CC2=O)C(OC(C)=O)C1OC(C)=O (stereo not drawn)
inactive: dose: 1.56 mg/kg/injection, schedule: Q01DX005 (ip), vehicle: water 110 % of control | dose: 3.13 mg/kg/injection, schedule: Q01DX005 (ip), vehicle: water 96 % of control | dose: 6.25 mg/kg/injection, schedule: Q01DX005 (ip), vehicle: water 104 % of control | dose: 12.5 mg/kg/injection, schedule: Q01DX005 (ip), vehicle: water 95 % of control and 102 % of control | dose: 25.0 mg/kg/injection, schedule: Q01DX005 (ip), vehicle: water 106 % of control

CN(C)C(=O)N(c1ccccc1)c1ccccc1
inactive: [4] 98 % of control | dose: 200.0 mg/kg/injection, schedule: Q04DX002 (ip), vehicle: saline with Tween-80 90 % of control

CCCCCCCCOC(=O)c1cc([N+](=O)[O-])c(Cl)c([N+](=O)[O-])c1
inactive: dose: 25.0 mg/kg/injection, schedule: Q01DX009 (ip), vehicle: saline with Tween-80 106 % of control | dose: 25.0 mg/kg/injection, schedule: Q04DX003 (ip), vehicle: saline with Tween-80 103 % of control | dose: 50.0 mg/kg/injection, schedule: Q01DX009 (ip), vehicle: saline with Tween-80 101 % of control | dose: 50.0 mg/kg/injection, schedule: Q04DX003 (ip), vehicle: saline with Tween-80 109 % of control | dose: 100.0 mg/kg/injection, schedule: Q01DX009 (ip), vehicle: saline with Tween-80 87 % of control | [1] 91 % of control and 98 % of control

O=c1[nH]c2ccccc2[nH]1
inactive: [1] 100 % of control | [2] 95 % of control | [3] 103 % of control

CC(CO)CCC(=O)C(C)C1C2(CC3C4CCC5CC(O)CCC5(C)C4CCC31C)SCCS2 (stereo not drawn)
inactive: [4] 86 % of control | dose: 400.0 mg/kg/injection, schedule: Q04DX002 (ip), vehicle: saline with Tween-80 92 % of control

Source: PubChem BioAssay AID256 (DTP/NCI, 2004)
